# Measured values from US20050245471A1, “Combination products for use in antitumoral treatment” (priority 2002, published 2005).
# Tested on: CSF-1
# Experiment: Quantification of CSF-1 secreted by NS2T2A1 cells transfected with oligonucleotides (ELISA)
# Type: cell-based, human
# Details: 250 nM oligonucleotide with 2.4 μg/ml cytofectin GS-3815, ELISA of culture medium 24 h after beginning of transfection, relative to non-transfected cell line
# Protocol: Line NS2T2A1 is a line of cells from the human breast (Ma et al., Int. J. Cancer, 1998, 78: 112-119) obtained by mammoplasty, transformed by SV40. This line secretes CSF-1 linearly as a function of the cell growth.
# The cells were cultivated in medium M5 (Gibco, France) complemented with 5% of -horse serum as described by Ma et al. (Int. J. Cancer, 1998, 78:112-119). Seeding was done in 6 well plates at a concentration, of 5×10^5 cells/ml/well. Transfection by oligonucleotides was done 24 h later, when the cells were in the exponential growth phase and they had reached 60% to 80% of confluence.
# Transfection by oligonucleotides was done using cytofectin GS-3815 (Glen research, Sterling. Va.). Oligonucleotides and cytofectin were diluted separately in polystyrene tubes with the opti-MEM medium (Gibco, France), and the cytofectin was mixed with an equal volume of diluted oligonucleotides. The mix was left for 15 minutes at ambient temperature to enable the formation of oligonucleotide/cytofectin complexes. Finally, the M5 medium was added to the solution to obtain final concentrations equal to 2.4 μg/ml of cytofectin and 250 nM of oligonucleotides. All transfections were done in the M5 medium and in a final volume of 1 ml. Oligonucleotide/cytofectin complexes were left in contact with cells for 24 h. All steps described above were done under sterile conditions.
# All experiments were done in triplicate for each concentration of oligonucleotides.
# The quantity of CSF-1 secreted in the culture medium of NS2T2A1 cells was-measured by an ELISA test, 24 h after the beginning of the transfection, referring strictly to the protocol described by the supplier (R&D systems, Europe Ltd, UK). The results are expressed as a percentage of CSF-1 expressed by the transfected cells with respect to the CSF-1 expressed by a non-transfected cell line.
row,Substance,Percentage of CSF-1 expressed [%]
1,"SEQ ID No. 2: phosphorothioate oligonucleotide with pdU/pdC base substitutions, hybridising region 135-152 of SEQ ID No. 1 (CSF-1) (GGGAGGGUGCUGUACCGA; listed as RNA, chemistry not fully specified)",70
2,"SEQ ID No. 3: phosphorothioate oligonucleotide with pdU/pdC base substitutions, hybridising region 284-301 of SEQ ID No. 1 (CSF-1) (UCUGGAGCAGGUUAAU; listed as RNA, chemistry not fully specified)",39
3,"SEQ ID No. 5: phosphorothioate oligonucleotide with pdU/pdC base substitutions, hybridising region 409-426 of SEQ ID No. 1 (CSF-1) (UUGUGGCGGUUAGGGUAG; listed as RNA, chemistry not fully specified)",90
4,"SEQ ID No. 4: phosphorothioate oligonucleotide with pdU/pdC base substitutions, hybridising region 341-358 of SEQ ID No. 1 (CSF-1) (ACACGAUGGAAUUCUUCC; listed as RNA, chemistry not fully specified)",50
